Results on two compounds are retold here after paper PMC11609934, “Exploration and characterization of the antimalarial activity of cyclopropyl carboxamides that target the mitochondrial protein, cytochrome b” (European Journal of Medicinal Chemistry, 2024).

Read-outs that look alike come from different tables or passages of the source.

Test [1] relates to W466-resistant populations. The experiment in a line: 72 h growth assay against W466-resistant populations. The test is classed as cell-based, Plasmodium falciparum. Conditions: for EC50: Plasmodium falciparum. The source says:
To determine the mechanism of action of the cyclopropyl carboxamide series, a forward genetic resistance study was undertaken on the two hit compounds W466 (1) and W499 (2).
The structures of W466 (1) and W499 (2) are slightly different although they appear to belong to the same structural class. To confirm if W466 (1) and W499 (2) may have the same molecular target, W466 (1) and W499 (2) were each evaluated for cross resistance against their respective resistant populations from the pulsed forward genetic study (Fig. 2).

In test [2] the test system is P. falciparum 3D7 parasites. Kind of test: P. falciparum 3D7 asexual stage LDH assay (72 h). The test is classed as cell-based, Plasmodium falciparum. Conditions: Plasmodium falciparum, read-out: Pf 3D7 EC50 (SD). The gist of the method:
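Asexual P. falciparum 3D7 parasites were grown for 72 h over a 10-point, 3-fold series starting at 1 μM in 0.1% DMSO, with 100 nM chloroquine as negative growth control. After freeze-thaw, parasite LDH was read at 650 nm, and EC50 came from a variable-slope sigmoidal fit.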

A further test relates to female gamete. Kind of test: Dual gamete formation assay, female gametes. The test is classed as cell-based. As to conditions: Plasmodium falciparum; NF54 parasites in a DGFA, 4 replicates. On the procedure:
To determine whether the cyclopropyl carboxamide class has transmission blocking potential we profiled selected analogs in a dual gamete formation assay. In this assay, stage V gametocytes are treated with compound, and gametogenesis is induced by the addition of xanthurenic acid. Male gamete viability is determined by an imaging algorithm measuring motile flagellation, while female viability is measured using an antibody to the female-specific Pfs25 surface marker. […] Collectively, the activity observed against male gametes is consistent with activity observed with other cyt b inhibitors.
Dual Gamete Formation Assay. Compounds were evaluated as previously described as a platform run at both Imperial College London and the London School of Hygiene and Tropical Medicine. Briefly, mature stage V gametocytes were exposed to compounds for 48 h at 37 °C in 384 well plates in gametocyte culture medium (RPMI 1640 supplemented with 25 mM HEPES, 50 μg/mL hypoxanthine, 4.8 g/L NaHCO3, 2 mM L-glutamine, 5 % pooled type AB serum, 0.5 % Albumax II (Gibco)) under a 1 % O2/3 % CO2/96 % N2 environment. Gametogenesis was then triggered by the addition of 10 μL ookinete medium (gametocyte culture medium supplemented with 100 μM xanthurenic acid and 0.27 μg/mL Cy3-labelled anti-Pfs25 antibody) to each well at room temperature. Plates were then cooled on a metal block at 4 °C for 4 min to ensure even cooling and then stabilized for a further 4 min at 28 °C. At 20 min post-induction, male gametogenesis was recorded in each well by automated brightfield microscopy using a × 4 objective lens and 1.5 × magnifier ( × 6 effective magnification). Afterward, plates were incubated in the dark at room temperature for 24 h and then female gametogenesis recorded in each well by automated fluorescence microscopy (anti-Pfs25-positive cells). […] All data was evaluated in comparison to the positive and negative controls to calculate percentage inhibition of male and female gametocytes, and dose response analysis and EC50 calculation performed using GraphPad Prism.

Test [3] deals with W499-resistant populations. The experiment in a line: microbe, parasite or virus in culture. Conditions: for EC50: Plasmodium falciparum. The test is classed as cell-based, Plasmodium falciparum. The source says: To confirm if W466 (1) and W499 (2) may have the same molecular target, W466 (1) and W499 (2) were each evaluated for cross resistance against their respective resistant populations from the pulsed forward genetic study (Fig. 2).

In a further test the test system is Dd2-B2. Kind of test: 72 h SYBR Green I / MitoTracker flow cytometry assay, Dd2-B2. The test is classed as cell-based. As to conditions: Plasmodium falciparum, DD2, 72 h. The protocol:
MIR assay.Plasmodium falciparum asexual blood stage (ABS) parasites were cultured at 3 % hematocrit in human O^+ RBCs in RPMI-1640 media, supplemented with 25 mM HEPES, 50 mg/L hypoxanthine, 2 mM L-glutamine, 0.21 % sodium bicarbonate, 0.5 % (wt/vol) AlbuMAXII (Invitrogen) and 10 μg/mL gentamycin, in modular incubator chambers (Billups- Rothenberg) at 5 % O2, 5 % CO2 and 90 % N2 at 37 °C. Dd2 parasites were obtained from T. Wellems (NIAID, NIH). Dd2-B2 is a genetically homogenous line that was cloned from Dd2 by limiting dilution in the Fidock lab. Dd2-Polδ is a line edited in the Fidock Lab to have a hypermutable polymerase. […] Parasite survival was assessed by flow cytometry on an iQue flow cytometer (Sartorius) using SYBR Green and MitoTracker Deep Red FM (Life Technologies) as nuclear stain and vital dyes respectively.
In general terms: A flow cytometer gives signals particle by particle.

A further test relates to Pf Dd2 parental line. Kind of test: Asexual stage assay, Dd2 parental line (SYBR green by FACS, 72 h). In kind it is cell-based. As to conditions: Plasmodium falciparum, DD2, 72 h, read-out: Pf Dd2 EC50 (SD), 72 h, SYBR green by FACS, 3 experiments. On the procedure:
Cyt b Resistant and ScDHODH Asexual Stage Assays. These assays were conducted as previously described. Briefly, asexual parasite strains indicated in Table 12 were incubated with compound in a dose response format for 72 h. Parasitemia was determined using SYBR-green fluorescence measured by flow cytometry (Thermo Fisher Attune). EC50 values were determined as described for the LDH assay.

For orientation: EC50 means the midpoint of the concentration-response curve. As usually defined, the IC50 is the concentration that gives 50% inhibition. Broadly, the IC90 is the concentration needed for an effect of 90%.

As for `O=C(NC1CC1)c1ccc(CN(Cc2ccc(Cl)cc2Cl)C2CC2)cc1` [W499 (2)], in test [1], the “fold shift in EC50 against W466-resistant populations compared to wildtype 3D7” value stood at 2 fold. Also, the EC50 in test [1] (read-out: EC50 against W466-resistant parasites) was 220 to 280 nM; in test [1] (read-out: W466-resistant populations EC50 (SD) #1), 283 nM; in test [1] (read-out: W466-resistant populations EC50 (SD) #2), 243 nM; in test [1] (read-out: W466-resistant populations EC50 (SD) #3), 215 nM; in test [2] (3D7 / DSM 265, parent 3D7 for resistant populations, LDH assay, 3 experiments (SYBR-green for DSM265)), 170 nM; in the test on female gamete it was over 25000 nM. The values for the EC50 in test [3] (read-out: W499-resistant population #2 EC50) and in test [3] (read-out: W499-resistant population #3 EC50) were 206 nM and 177 nM, respectively. In test [3], the “fold shift in EC50 against W499-resistant populations compared to wildtype 3D7” value is recorded as 1.6–1.9 fold. In the test on Dd2-B2 (read-out: IC50 Dd2-B2), the IC50 came to 112 nM. In addition, in the test with Dd2-B2 (read-out: IC90 Dd2-B2), the IC90 turned out to be 224 nM.
`CCCN(Cc1ccc(C(=O)NC2CC2)cc1)Cc1ccc(C(F)(F)F)cc1` [WJM280 (108), N-Cyclopropyl-4-((propyl(4-(trifluoromethyl)benzyl)amino)methyl)benzamide]: the half-maximal effective concentration (EC50) was determined as 10 nM in the test with Pf Dd2 parental line; 40 nM in test [2] (3D7, 72 h, LDH activity of P. falciparum 3D7 parasites over 72 h, means and SDs, three or more experiments).
